Results: patent publication US20220161456A1, “S[…] PRESERVATIVE COMPOSITION COMPRISING POLYMERIC BETAINE AND CARBAMATE” (Troy Corporation, priority 2019, published 2022)

Tested on: Aureobasidium pullulans (ATCC #9348)
Test: EUCAST 96-well plate fungal growth inhibition (MIC)
Assay type: cell-based
Set-up: key to growth of Aureobasidium pullulans in 96-well plates: (+) in each block indicates growth; (−) indicates no growth, i.e., the inhibitor was effective
Conditions: for MIC: Aureobasidium pullulans ATCC 9348, 3 days at 35° C.
Protocol: (A) 0.17 g of 60% DPAB aqueous solution (ProTek® PBT or Polymeric Betaine EP or Polymeric Betaine Technical Grade Active Ingredient Wood Preservative, Troy Chemical Corporation, Newark, N.J.) was diluted in 9.83 g ethanol by stirring to form a concentrate containing 1% DPAB.
(B) 0.25 g of 40% IPBC solvent solution (Polyphase® AF-1, Troy Chemical Corporation, Newark, N.J.) was diluted in 9.75 g ethanol by stirring to form a concentrate containing 1% IPBC.
(C) 21.04 g of 60% DPAB aqueous solution (ProTek® PBT or Polymeric Betaine EP or Polymeric Betaine Technical Grade Active Ingredient Wood Preservative, Troy Chemical Corporation, Newark, N.J.), 6.25 g of 40% IPBC solvent solution (Polyphase AF-1, Troy Chemical Corporation, Newark, N.J.) and 22.74 g of ethanol were mixed and stirred. The resulting concentrate contained 25% polymeric betaine and 5% IPBC. The weight ratio of polymeric betaine to IPBC was 5:1. 0.33 g of this IPBC/polymeric betaine concentrate was diluted in 9.67 g of ethanol to form a use-dilution containing about 0.83% DPAB and 0.17% IPBC.
Solutions prepared as described above were tested in 96-well plates for their ability to inhibit fungal growth. The solutions were tested according to the EUCAST methodology as described in Rodriguez-Tudela et al. 2006 “Antifungal susceptibility testing in Aspergillus spp. according to EUCAST methodology,” the contents of which are incorporated by reference herein. The solutions were checked for inhibition against fungal organisms Aspergillus niger (ATCC #6275), Aureobasidium pullulans (ATCC #9348), Penicillium funiculosum (ATCC #11797) and Trichoderma pseudokoningii (ATCC #26801). This method is described below:
(1) Prepared preservative test wells by adding 2 microliters of each 1% preservative solution formulation to 198 microliters of 2xRPMI-MOPS-2% Glucose in each column “1” in duplicate.
(2) Added 100 microliters of 2xRPMI-MOPS-2% Glucose to the remaining columns.
(3) Performed 2-fold dilutions down the columns to column “12”.
(4) Prepared suspension of microorganisms from a 3-5 day old PDA slants by flooding slant with 1 mL deionized water and 0.1% Tween-20.
(5) Suspension strength was determined via hemocytometer then adjusted to 1×10^6 spores/mL with sterile deionized water.
(6) Added 100 microliters of the microorganism suspension to all wells except for sterility (−) controls containing test media. The water used to prepare the fungal suspensions was added to sterility (−) control wells.
(7) The inoculated 96-well plates were incubated for 3 days at 35° C.
(8) After incubation, fungal growth was evaluated by visual growth in test wells. Minimum inhibitory concentration (MIC) is recorded in ppm and defined as the lowest concentration of fungicide that produces no visual changes in turbidity in the test wells. (+) in each block indicates growth and (−) indicates no growth, i.e., the inhibitor was effective.
(9) The experiment is only considered valid if growth is observed in the positive (+) control wells and no growth is observed in the negative control wells.
In order to show more directly the possible synergy in the invention, the results are presented by applying the Synergy Index (S.I.). Minimal inhibitory concentration of the composition of this invention (mixture of DPAB and IPBC) are analyzed using the following equation:
MCA=Concentration of compound A in parts per million, acting alone, which prevents fungal growth at the reference point
MCA′=Concentration of compound A in parts per million, in the mixture, which prevents fungal growth at the reference point
MCB=Concentration of compound B in parts per million, acting alone, which prevents fungal growth at the reference point
MCB′=Concentration of compound B in parts per million, in the mixture, which prevents fungal growth at the reference point
When SI is greater than 2, antagonism is indicated. […] When SI is between 0.5 and 2, the action of biocides is additive.

Compound | MIC [ppm] | growth of Aureobasidium pullulans in 96-well plates (well 1, 50.00 ppm active) | growth of Aureobasidium pullulans in 96-well plates (well 2, 25.00 ppm active) | growth of Aureobasidium pullulans in 96-well plates (well 3, 12.50 ppm active) | growth of Aureobasidium pullulans in 96-well plates (well 4, 6.25 ppm active) | growth of Aureobasidium pullulans in 96-well plates (well 5, 3.13 ppm active) | growth of Aureobasidium pullulans in 96-well plates (well 6, 1.56 ppm active) | growth of Aureobasidium pullulans in 96-well plates (well 7, 0.78 ppm active) | growth of Aureobasidium pullulans in 96-well plates (well 8, 0.39 ppm active) | growth of Aureobasidium pullulans in 96-well plates (well 9, 0.20 ppm active) | growth of Aureobasidium pullulans in 96-well plates (well 10, 0.10 ppm active) | growth of Aureobasidium pullulans in 96-well plates (well 11, 0.05 ppm active) | growth of Aureobasidium pullulans in 96-well plates (well 12, 0.02 ppm active)
didecyl bis(hydroxyethyl) ammonium borate [DPAB] | 12.5 | − | − | − | + | + | + | + | + | + | + | + | +
CCCCNC(=O)OCC#CI [IPBC, 3-iodo-2-propynyl butyl carbamate] | 25.00 | − | − | + | + | + | + | + | + | + | + | + | +
